Results published in PubChem BioAssay (NCI).
Values joined by “and” are separate entries in the source; they are usually repeats but may differ in a detail not shown here. Identical values can stand only once.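 Protocol summary: plate cells (96-well), add compound at 5 concentrations, incubate 48 h, interpolate endpoints linearly. GI50 is the concentration that inhibits growth by half. TGI marks complete inhibition of growth.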

How the values were obtained:
Experiment in all cases: growth of human tumour cells (NCI), 48 h
A498 renal = system: A498 renal
IGROV1 ovarian = system: IGROV1 ovarian
MCF7 breast = system: MCF7 breast
NCI-H226 lung = system: NCI-H226 lung
NCI-H23 lung = system: NCI-H23 lung
NCI-H522 lung = system: NCI-H522 lung
OVCAR-4 ovarian = system: OVCAR-4 ovarian
RXF 393 renal = system: RXF 393 renal
SF-268 CNS = system: SF-268 CNS
SK-MEL-5 melanoma = system: SK-MEL-5 melanoma

Row | SMILES | GI50 (A498 renal) | TGI (A498 renal) | GI50 (IGROV1 ovarian) | TGI (IGROV1 ovarian) | GI50 (MCF7 breast) | TGI (MCF7 breast) | GI50 (NCI-H226 lung) | TGI (NCI-H226 lung) | GI50 (NCI-H23 lung) | TGI (NCI-H23 lung) | GI50 (NCI-H522 lung) | TGI (NCI-H522 lung) | GI50 (OVCAR-4 ovarian) | TGI (OVCAR-4 ovarian) | GI50 (RXF 393 renal) | TGI (RXF 393 renal) | GI50 (SF-268 CNS) | TGI (SF-268 CNS) | GI50 (SK-MEL-5 melanoma) | TGI (SK-MEL-5 melanoma)
1 | CO[C@@H]1CC[C@]2(C)OC[C@H](C)[C@@H]3C[C@@H](C)[C@@H](OC(C)=O)[C@@H]4[C@H]3[C@@H]2O[C@H]4C[C@@]1(C)O | > 100 µM | > 100 µM | > 100 µM | > 100 µM | > 100 µM | > 100 µM | > 100 µM | > 100 µM | > 100 µM | > 100 µM | > 100 µM | > 100 µM | > 100 µM | > 100 µM | > 100 µM | > 100 µM | > 100 µM | > 100 µM | > 100 µM | > 100 µM
2 | O=S(=O)(OI(OI(OS(=O)(=O)C(F)(F)F)c1ccccc1)c1ccccc1)C(F)(F)F |  | > 100 µM |  | > 100 µM |  |  |  | > 100 µM |  |  |  | > 100 µM |  |  |  | 73.7 µM |  | > 100 µM |  | 85.4 µM
3 | COC(=O)c1c(C)cc(OC)c(C/C=C(\C)CCCc2coc(C=C(C)C)c2)c1OC |  |  |  | > 100 µM |  | > 100 µM |  |  |  | > 100 µM |  | > 100 µM |  | > 100 µM |  |  |  | > 100 µM |  | > 100 µM
4 | CCn1cc(-c2ccnc3[nH]c(-c4cccc(CN(C)C)c4)cc23)c(-c2ccc(NC(=O)N(C)C)cc2)n1 | 0.0673 µM and 0.519 µM | 0.749 µM and 3.28 µM | 3.47 µM and 1.9 µM | 33.2 µM and > 10 µM | 0.487 µM and 0.312 µM | 19.4 µM and > 10 µM | 0.25 µM and 0.451 µM | 16.2 µM and > 10 µM | 2.1 µM and 2.45 µM | 17.2 µM and > 10 µM |  | 20 µM and > 10 µM | 0.479 µM and 3.41 µM | 37.1 µM and > 10 µM | 0.356 µM and 1.18 µM | 5.54 µM and > 10 µM | 3.03 µM and 2.07 µM | 20.9 µM and > 10 µM | 6.55 µM | 23.6 µM
5 | C[C@H](CCOc1cccc(CC(=O)O)c1)N(Cc1cccc(C(F)(F)F)c1Cl)CC(c1ccccc1)c1ccccc1 |  |  | 5.77 µM | 19.4 µM | 3.53 µM | 17.9 µM | 4.49 µM | 21.5 µM | 4.5 µM | 19.2 µM | 4.51 µM | 22.3 µM | 5.26 µM | 21.9 µM | 4.18 µM | 16.2 µM | 5.28 µM | 20.3 µM | 3.95 µM | 14.6 µM
6 | CCOc1ccc(NC(=O)CC2SC(=Nc3ccc(C)cc3C)NC2=O)cc1 (configuration not stated) |  | > 100 µM |  | > 100 µM |  |  |  | > 100 µM |  | > 100 µM |  | > 100 µM |  | > 100 µM |  | > 100 µM |  | > 100 µM |  | > 100 µM
7 | O=Cc1cc2c(cc1-c1cc3c(cc1C=O)OCO3)OCO2 |  | > 100 µM |  | > 100 µM |  |  |  | > 100 µM |  | > 100 µM |  | > 100 µM |  | > 100 µM |  | 94.1 µM |  | > 100 µM |  | > 100 µM
8 | O=C(c1ccc([N+](=O)[O-])cc1[N+](=O)[O-])N(/N=C/C=C/c1ccccc1)c1nnc(-c2ccccc2)c(-c2ccccc2)n1 |  | 95.2 µM |  | > 100 µM |  |  |  | > 100 µM |  | 93.2 µM |  | 96.6 µM |  | 76.6 µM |  | 71.1 µM |  | > 100 µM |  | > 100 µM
9 | CC12c3ccccc3C(OC=O)(c3ccccc31)C1(C)c3ccccc3C2(OC=O)c2ccccc21 |  | > 100 µM |  | > 100 µM |  |  |  | > 100 µM |  | > 100 µM |  | > 100 µM |  | > 100 µM |  | > 100 µM |  | > 100 µM |  | > 100 µM
10 | Cc1nc2c(N)ncnc2o1 |  | > 100 µM |  | > 100 µM |  |  |  | > 100 µM |  | > 100 µM |  | > 100 µM |  | > 100 µM |  | > 100 µM |  | > 100 µM |  | > 100 µM
11 | COC(=O)c1c2c(c(C)[n+]([O-])c1C)C(=O)C(NCc1ccc(Br)cc1)=CC2=O | 1.62 µM | 4.35 µM |  |  | 1.33 µM | 3.21 µM |  |  | 1.57 µM | 4.68 µM |  |  | 0.704 µM | 2 µM | 1.99 µM | 5.96 µM | 2.21 µM | 7.12 µM | 0.867 µM | 2.11 µM
12 | CCOc1ccc(OCC(=O)O)c2c1CCCC2=O |  | > 100 µM |  | > 100 µM |  |  |  | > 100 µM |  | > 100 µM |  | > 100 µM |  | > 100 µM |  | > 100 µM |  | > 100 µM |  | > 100 µM
13 | NCCCn1c2c(c3ccc([N+](=O)[O-])cc3c1=O)C(=O)c1cc(I)ccc1-2 | 3.02 µM | 7.72 µM |  |  | < 0.01 µM | 0.517 µM | 0.786 µM | 26.2 µM | 0.0343 µM | 1.22 µM |  |  |  |  | 0.503 µM | 2.28 µM | 0.0841 µM | 3.43 µM | 0.172 µM | 1.45 µM
14 | Cc1nc2c(Br)cc(Br)cc2c(=O)n1-c1nnc(-c2cccc(Cl)c2Cl)c(N)n1 |  |  | 15 µM | 55.1 µM | 26.7 µM | > 100 µM | 21.3 µM | 59.6 µM | 23.4 µM | 65.5 µM | 12.8 µM | 54.6 µM | 84.5 µM | > 100 µM | 26.2 µM | > 100 µM | 45.5 µM | > 100 µM | 17.2 µM | 39 µM
15 | O=[N+]([O-])c1cccnc1N=Nc1c(O)[nH]c2ccccc12 |  | > 100 µM |  | 53.9 µM |  | 20.6 µM |  | > 100 µM |  |  |  | 69.3 µM |  | 73 µM |  |  |  | > 100 µM |  | 
16 | O=C1C=C(Nc2ccc(Cl)cc2C(=O)c2ccccc2)c2ccccc2C1=O |  | > 100 µM |  | > 100 µM |  |  |  | > 100 µM |  | > 100 µM |  | > 100 µM |  | > 100 µM |  | > 100 µM |  | > 100 µM |  | > 100 µM
17 | COc1cc(/C=C2\CCCCC3=C2N=C2SC(C)=CN2C3c2cc(OC)c(OC)c(OC)c2)cc(OC)c1OC (configuration not stated) |  |  | 63.5 µM | > 100 µM | 22.6 µM | > 100 µM | 11 µM | > 100 µM | 32.2 µM | > 100 µM | 1.32 µM | > 100 µM | 12.3 µM | > 100 µM | 3.06 µM | > 100 µM | 36.7 µM | > 100 µM | 0.077 µM | 21 µM
18 | Cc1nc2sccn2c1-c1nc2sccn2c1/C=C1/C(=O)Nc2ccccc21 | 2.04 µM | 8.26 µM | 1.92 µM | 7.77 µM | 1.5 µM | 6.51 µM | 9.79 µM | > 100 µM | 9.44 µM | > 100 µM | 2.72 µM | 11.1 µM | 13.8 µM | > 100 µM |  |  | 6.18 µM | 33.1 µM | 2.94 µM | 12.5 µM
19 | C=C(C)C(C1C=C(CCC(C=O)=C(C)C)C(=O)O1)C1(OC)C=C(C)C(=O)O1 (configuration not stated) |  |  | 92.6 µM | > 100 µM | 7.6 µM | 30.3 µM | > 100 µM | > 100 µM | 91.3 µM | > 100 µM | > 100 µM | > 100 µM | > 100 µM | > 100 µM |  |  |  |  | 71.4 µM | > 100 µM
20 | Oc1oc(C(=C2N=c3ccccc3=N2)c2ccc(Cl)cc2)c(O)c1-c1ccc(Cl)cc1 |  | 9.06 µM |  | > 100 µM |  |  |  | 6.81 µM |  | 4.34 µM |  | 6.18 µM |  | > 100 µM |  | 6.8 µM |  | > 100 µM |  | 
21 | CCOC(=O)Cc1csc(Nc2ccccc2[N+](=O)[O-])n1 |  | > 100 µM |  | > 100 µM |  |  |  | > 100 µM |  | > 100 µM |  | > 100 µM |  | > 100 µM |  | > 100 µM |  | > 100 µM |  | > 100 µM
22 | CNCCCNc1ccnc2cc(Cl)ccc12 | 12.4 µM | 40.3 µM | 18.8 µM | 63.8 µM | 23.4 µM | 83.8 µM | 25.9 µM | 87.5 µM | 30.8 µM | > 100 µM |  |  | 18.7 µM | 57.4 µM | 14.5 µM | 65.4 µM | 22.6 µM | 98.3 µM | 16.4 µM | 31.6 µM
23 | CCN(CCNS(C)(=O)=O)c1ccc(N)c(C)c1 | 12.6 µM | 55.2 µM | 4.3 µM | 13.4 µM | 4.3 µM | 27.2 µM | 15.2 µM | 32.2 µM |  |  | 2 µM | 3.46 µM | 6.39 µM | 19.4 µM | 2.71 µM | 8.85 µM | 11.3 µM | 24.2 µM | 11.9 µM | 24.6 µM
24 | C/C(=N\NC(N)=O)c1sc(-c2nc(C)c(/C(C)=N/NC(N)=O)s2)nc1C |  | > 100 µM |  | > 100 µM |  |  |  | > 100 µM |  | > 100 µM |  | > 100 µM |  | > 100 µM |  | > 100 µM |  | > 100 µM |  | > 100 µM
25 | O=C1C/C(Br)=C\c2ccccc2-c2ccccc21 |  | 22.5 µM |  | 9.02 µM |  |  |  | 8.22 µM |  | 9.56 µM |  | 1.59 µM |  | 7.88 µM |  | 3.04 µM |  | 8.39 µM |  | 16 µM
26 | C=C(C)[C@@H]1CC[C@]2(CN)CC[C@]3(C)[C@H](CC[C@@H]4[C@@]5(C)CCCNC(C)(C)[C@@H]5CC[C@]43C)[C@@H]12 | 1.5 µM | 2.92 µM | 1.82 µM | 3.57 µM | 1.27 µM | 2.7 µM | 1.88 µM | 3.8 µM | 1.7 µM | 3.3 µM |  |  |  |  | 1.75 µM | 3.49 µM |  |  | 1.56 µM | 3 µM
